Measurements: US11286228B2, “Stilbene derivative and method for preparing same” (Ozchela Inc., priority 2016, dated 2022)
Read-outs that look alike come from different tables or passages of the source.

What was measured:
[1] = system: mitochondria obtained from hepatocytes; assay: Inhibitory activity on calcium-induced mitochondrial swelling (absorbance 520 nm)
Text: Cyclophilin is a key protein for forming permeability transition pores (PTP) in mitochondria. When permeability transition pores are formed, mitochondria swell, whereby the outer membrane thereof ruptures and thus cell death progresses. Such mitochondrial dysfunction causes many diseases including neurodegenerative diseases, cancer, and the like. Cyclosporine, a known cyclophilin inhibitor, is capable of preventing the formation of permeability transition pores to thus suppress mitochondrial swelling.
The mitochondrial swelling test was performed as follows. Specifically, the hepatocytes were disrupted using a Dounce tissue grinder. The disrupted cells were centrifuged at 700×g for 10 min and the supernatant was transferred into a new tube. The supernatant was centrifuged at 12,000×g for 15 min, thereby obtaining mitochondria.
When the extracted mitochondria were added with calcium, they swelled, which may be observed by measuring the absorbance at 520 nm. The stilbene derivatives are effective at inhibiting mitochondrial swelling due to calcium.
The activity of Compounds 1 to 155 of Tables 1 to 10 on inhibiting mitochondrial swelling may be determined based on IC50 values, and may be grouped as follows: […]

cyclophilin = assay: Cis-trans isomerase inhibitory activity (chymotrypsin-coupled Suc-AAPF-pNA cleavage, absorbance 390 nm); type: biochemical
Text: Chymotrypsin cleaves a trans-type alanine-proline peptide bond. When Suc-AAPF-pNA (a peptide substrate) and chymotrypsin are mixed, the trans-type peptide substrate is cleaved and the cis-type peptide substrate remains. The remaining cis-type peptide substrate is converted into a trans form by a cis-trans isomerase and is then cleaved again by chymotrypsin. When the cis-trans isomerase is present, chymotrypsin is able to cleave a larger amount of trans-type peptide substrate within a predetermined period of time, from which the activity of the cis-trans isomerase may be determined. The amount of the cleaved trans-type peptide substrate is measured using absorbance at 390 nm. Cyclophilin has cis-trans isomerase activity, and accelerates the cleavage of trans-type peptide substrate by chymotrypsin. When the stilbene derivatives of the present invention were treated together with cyclophilin, the cleavage of the peptide substrate by chymotrypsin was not observed to accelerate. Thereby, the stilbene derivatives of the invention can be concluded to inhibit the activity of cyclophilin.

hepatitis C virus = assay: Antiviral activity in HCV replicon cells (Renilla luciferase); type: cell-based
Description: The antiviral activity of the stilbene derivatives on hepatitis C virus was measured. The replicon cells that stably replicate the hepatitis C virus genome were attached to a culture plate and cultured in a CO2 incubator at 37° C. for 24 hr. The replicon cells cultured for one day were washed with a PBS solution, treated with the compounds of the present invention, and then cultured for 72 hr. The stilbene derivative-treated replicon cells were washed with a cold PBS solution and added with 20 μL of a cell lysis solution so that the cells were lysed in ice for 20 min. 100 μL of a Renilla luciferase substrate was added thereto, after which the luminescence thereof was measured and thus the amount of the hepatitis C virus genome was estimated. The amount of the hepatitis C virus genome in the stilbene derivative-treated replicon cells according to the present invention relative to the amount of the hepatitis C virus genome in dimethylsulfoxide (DMSO)-treated replicon cells is shown.
Compounds 1 to 155 of Tables 1 to 10 may be grouped as follows based on the antiviral activity (EC50) values: […]

[2] = Hepatocyte, calcium-induced swelling of extracted mitochondria, read-out: Test Example 4: inhibiting mitochondrial swelling (IC50)
[3] = cyclophilin, chymotrypsin, Suc-AAPF-pNA, read-out: Test Example 1: cis-trans isomerase inhibitory activity (IC50)
[4] = Hepatitis C virus, HCV replicon cells, 72 hr, Renilla luciferase, relative to DMSO, read-out: Test Example 3: antiviral activity (EC50)
[5] = Hepatocyte, read-out: Test Example 4: activity on inhibiting mitochondrial swelling (IC50) group
[6] = read-out: Test Example 1: cis-trans isomerase inhibitory activity (IC50) group
[7] = Hepatitis C virus, HCV replicon cells, read-out: Test Example 3: antiviral activity (EC50) group
[8] = Hepatitis C virus, 72 h, read-out: Test Example 3: antiviral activity (EC50)
[9] = calcium-induced swelling of extracted mitochondria, read-out: Test Example 4: inhibiting mitochondrial swelling (IC50)
[10] = HCV replicon cells, 72 hr, Renilla luciferase, relative to DMSO, read-out: Test Example 3: antiviral activity (EC50)

| Structure (SMILES) | IC50 [1, 2] [nM] | IC50 (cyclophilin; [3]) [nM] | EC50 (hepatitis C virus; [4]) [nM] | further results |
| --- | --- | --- | --- | --- |
| N#CC(=Cc1ccccc1CC1CCCCC1)c1ccc([N+](=O)[O-])cc1 [Compound 41] | < 5000 | ≤ 20 | < 500 | – |
| CCCCOC(=O)c1ccncc1C=Cc1ccc(CC(C)(C)C)cc1 [Compound 147] | – | – | – | IC50 [1, 5]: 5000 to 50000 nM; IC50 (cyclophilin; [6]): 20 to 200 nM; EC50 (hepatitis C virus; [7]): 500 to 5000 nM |
| CC(C)(C)Cc1ccccc1C=C(C#N)c1ccc([N+](=O)[O-])cc1 [Compound 35] | 5000 to 50000 | 20 to 200 | 500 to 5000 | – |
| CC(C)(C)Cc1ccc(C=Cc2ccc(O)cc2C(=O)O)cc1 [Compound 136] | < 5000 | ≤ 20 | < 500 | – |
| COC(=O)c1ccccc1C=Cc1ccc(CC(C)C)cc1 [Compound 129] | 5000 to 50000 | 20 to 200 | 500 to 5000 | – |
| CC(C)(C)Cc1ccc(C(I)=Cc2ccccc2C(=O)OCC2CCCCC2)cc1 [Compound 119] | < 5000 | ≤ 20 | < 500 | – |
| CCCCOC(=O)c1cnccc1C=Cc1ccc(CC(C)(C)C)cc1 [Compound 146] | – | – | – | IC50 [1, 5]: 5000 to 50000 nM; IC50 (cyclophilin; [6]): 20 to 200 nM; EC50 (hepatitis C virus; [7]): 500 to 5000 nM |
| CCCCOC(=O)c1ccccc1C=C(C)c1ccc(Cc2ccccc2)cc1 [Compound 97] | 5000 to 50000 | 20 to 200 | – | EC50 (hepatitis C virus; [8]): 500 to 5000 nM |
| CC(C)(C)Cc1ccc(C=Cc2cccc(O)c2C(=O)O)cc1 [Compound 135] | < 5000 | ≤ 20 | < 500 | – |
| CC(C)(C)Cc1ccc(C(N)=Cc2ccccc2C(=O)OCC2CCCCC2)cc1 [Compound 105] | 5000 to 50000 | 20 to 200 | 500 to 5000 | – |
| CCCCCOC(=O)c1ccccc1C=Cc1ccc(CC(C)(C)C)cc1 [Compound 72] | – | ≤ 20 | – | IC50 [1, 9]: < 5000 nM; EC50 (hepatitis C virus; [10]): < 500 nM |
| CCCCOC(=O)c1ccccc1C=C(N)c1ccc(CC(C)(C)C)cc1 [Compound 98] | 5000 to 50000 | 20 to 200 | 500 to 5000 | – |
| COc1ccccc1C=C(C#N)c1ccc(C(C)C)cc1 [Compound 6] | 50000 to 500000 | 200 to 2000 | 5000 to 50000 | – |
| Cc1ccc(C=Cc2ccc(CC(C)(C)C)cc2)c(C(=O)O)c1 [Compound 140] | < 5000 | ≤ 20 | < 500 | – |
| CCCCCOC(=O)c1ccccc1C=C(C)c1ccc(CC(C)(C)C)cc1 [Compound 88] | 5000 to 50000 | 20 to 200 | 500 to 5000 | – |
| CCCCCc1ccc(C=Cc2ccccc2C(=O)OCCCC)cc1 [Compound 132] | < 5000 | ≤ 20 | < 500 | – |
| CCCCOc1ccc(C(C#N)=Cc2ccccc2C(=O)O)cc1 [Compound 19] | – | 20 to 200 | – | IC50 [1, 9]: 5000 to 50000 nM; EC50 (hepatitis C virus; [10]): 500 to 5000 nM |
| CCCCOC(=O)c1c(C)cccc1C=C(Cl)c1ccc(CC(C)(C)C)cc1 [Compound 113] | < 5000 | ≤ 20 | < 500 | – |
| CCCCCOC(=O)c1ccccc1C=C(N)c1ccc(CC(C)(C)C)cc1 [Compound 103] | 5000 to 50000 | 20 to 200 | 500 to 5000 | – |

| Structure (SMILES) | IC50 [1, 2] [nM] | IC50 (cyclophilin; [3]) [nM] | EC50 (hepatitis C virus; [4]) [nM] | further results |
| --- | --- | --- | --- | --- |
| CC(C)(C)Cc1ccc(C(F)=Cc2ccccc2C(=O)OCc2ccccc2)cc1 [Compound 120] | < 5000 | ≤ 20 | < 500 | – |
| CC(C)Cc1ccccc1C=C(C#N)c1ccc([N+](=O)[O-])cc1 [Compound 34] | 50000 to 500000 | 200 to 2000 | 5000 to 50000 | – |
| CCCCOC(=O)c1ccccc1C=C(N)c1ccc(CC2CCCCC2)cc1 [Compound 110] | 5000 to 50000 | 20 to 200 | 500 to 5000 | – |
| N#CC(=Cc1ccccc1C(=O)O)c1ccc(CCC2CC2)cc1 [Compound 62] | < 5000 | ≤ 20 | < 500 | – |
| CN(C)CCOc1ccccc1C=C(C#N)c1ccc([N+](=O)[O-])cc1 [Compound 28] | 50000 to 500000 | 200 to 2000 | 5000 to 50000 | – |
| N#CC(=Cc1ccccc1C(=O)O)c1ccc(CC2CC2)cc1 [Compound 61] | < 5000 | ≤ 20 | < 500 | – |
| CCCCOC(=O)c1ccccc1C=C(N)c1ccc(Cc2ccccc2)cc1 [Compound 111] | 5000 to 50000 | 20 to 200 | – | EC50 (hepatitis C virus; [8]): 500 to 5000 nM |
| COC(=O)c1ccccc1C=Cc1ccc(CC(C)(C)C)cc1 [Compound 124] | < 5000 | ≤ 20 | < 500 | – |
| CC(C)(C)Cc1ccc(C=Cc2c(O)cccc2C(=O)O)cc1 [Compound 150] | – | – | – | IC50 [1, 5]: < 5000 nM; IC50 (cyclophilin; [6]): ≤ 20 nM; EC50 (hepatitis C virus; [7]): < 500 nM |
| CCCCOC(=O)c1c(C)cccc1C=C(C)c1ccc(CC(C)(C)C)cc1 [Compound 83] | 5000 to 50000 | 20 to 200 | 500 to 5000 | – |
| CC(C)(C)CCc1ccc(C(C#N)=Cc2ccccc2C(=O)O)cc1 [Compound 57] | < 5000 | ≤ 20 | < 500 | – |
| CCCCOC(=O)c1ccccc1C=Cc1ccc(CC(C)C)cc1 [Compound 131] | < 5000 | ≤ 20 | < 500 | – |
| CCCOC(=O)c1ccccc1C=C(C)c1ccc(CC(C)(C)C)cc1 [Compound 87] | 5000 to 50000 | 20 to 200 | 500 to 5000 | – |
| CCCCCOC(=O)c1ccccc1C=C(Cl)c1ccc(CC(C)(C)C)cc1 [Compound 117] | < 5000 | ≤ 20 | < 500 | – |
| CN(C)CCCOc1cccc(C=C(C#N)c2ccc([N+](=O)[O-])cc2)c1 [Compound 33] | 50000 to 500000 | 200 to 2000 | 5000 to 50000 | – |
| COC(=O)c1ccccc1C=Cc1ccc(Cc2ccccc2)cc1 [Compound 128] | 5000 to 50000 | 20 to 200 | – | EC50 (hepatitis C virus; [8]): 500 to 5000 nM |
| CC(C)(Cc1ccc(C(C#N)=Cc2ccccc2C(=O)O)cc1)CC1CC1 [Compound 63] | 5000 to 50000 | 20 to 200 | 500 to 5000 | – |
| CC(C)c1ccccc1C=C(C#N)c1ccc([N+](=O)[O-])cc1 [Compound 23] | 50000 to 500000 | 200 to 2000 | 5000 to 50000 | – |
